Consider 18 compounds from patent publication EP0114002B1, “Benzothiopyrano(4,3,2,-cd)indazoles, their pharmaceutical compositions and methods for their production” (WARNER-LAMBERT COMPANY, priority 1983, dated 1984).

Where a name gives a salt, the structure may show the parent alone. Read-outs that look alike come from different tables or passages of the source.

One assay deals with HCT-8 cells. Kind of assay: in vitro proliferating human colon adenocarcinoma (HCA) cell screen. It counts as cell-based. The method, then:
One test protocol is the in vitro proliferating human colon adenocarcinoma (HCA) cell screen. In this test, HCT-8 cells (HCA cell line received from Yale University) are trypsinized using trypsin-EDTA. A single cell suspension is achieved by passing the cells through a 26 gauge needle with a 20 cc syringe. A cell suspension is prepared using RPMI 1640 + 10% FCS + 50) g/ml gentamicin sulfate with a cell concentration of approximately 30,000 cells/ml. The cell suspension is dispensed in Linbro 24-well plates; 1 ml/well. The plates are incubated for approximately 48 hours at 37°C in a 5% C02 atmosphere. At this time test compounds are added in the appropriate concentration. Five µl of the 200 µg/ml stock solution is added to each well in primary test. Ten µl of the appropirate dilution is added to each well for a titration test. The plates are re-incubated an additional 60 to 65 hours at 37°C in a 5% C02 atmosphere. The cells are lysed using a mix of cationic surfactant, glacial acetic acid, and sodium chloride. Two ml of the lysed cell suspension from each well is added to 8 ml of diluent. The number of nuclei is determined using a Coulter counter (ZBI model), and a percent growth for each drug concentration is calculated. From this, an ID50 molar concentration of a compound (that results in 50% inhibition of growth) is determined.

In the next assay the test system is L1210 cells. Kind of assay: L1210 murine leukemia cell growth inhibition in vitro. The following applies: Mus musculus, 72 h. It counts as cell-based. The method, then:
Another test protocol uses L1210 cells, a murine leukemia cell line, grown in RPMI 1640 supplemented with 5% fetal bovine serum and gentamicin ([…]). Drug dilutions are prepared in the appropriate solvent and 20 µl of each dilution are added to 24-well Linbro tissue culture plates, followed by the addition of 2.0 ml of cell suspension containing 3 x 10^4 cells per ml. Solvent and medium controls are included in each test. After incubation at 37°C forthree days in 5% C02, the contents of each well are removed and the cells counted in a ZBI Coulter counter. Percent growth are calculated relative to the controls and the levels of drug activity are expressed as ID50 in moles per liter.

The test system of assay [1] is lymphocytic leukemia P388. Kind of assay: in vivo lymphocytic leukemia P388 test. Further details: species or system mice. To be noted: Mus musculus, P388, ip, 120 h, read-out: P388 in vivo T/C × 100; for response vs control in vivo at 25 mg/kg: Dose 25.00 mg/kg intraperitoneally once daily for five days; for response vs control in vivo at 6.25 mg/kg: Dose 6.25 mg/kg intraperitoneally once daily for five days; for response vs control in vivo at 12.5 mg/kg: Dose 12.50 mg/kg intraperitoneally once daily for five days; for response vs control in vivo at 100 mg/kg: Dose 100.00 mg/kg intraperitoneally once daily for five days; for response vs control in vivo at 3.12 mg/kg: Dose 3.12 mg/kg intraperitoneally once daily for five days; for response vs control in vivo at 50 mg/kg: Dose 50.00 mg/kg intraperitoneally once daily for five days. The procedure:
Another test protocol is the in vivo lymphocytic leukemia P388 test. The animals used are either male or female CD2F, mice. There are six or seven animals per test group. The tumor transplant is by intraperitoneal injection of dilute ascitic fluid containing cells of lymphocytic leukemia P388. The test compounds are administered intraperitoneally once daily for five consecutive days at various doses following tumor inoculation. The animals are weighed and survivors are recorded on a regular basis for 30 days. A compound is designated "toxic" if, at a given dose, all animals died prior to four days after the first injection of drug. A ratio of survival time for treated (T)/control (C) animals is calculated. A criterion for efficacy is a ratio T/C times 100 greater than or equal to 125. See Cancer Chemotherapy Reports, Part 3, 3; 1 (1972) for a comprehensive discussion of the protocol.

Setting [2] is: Table 2, 60 to 65 hours with compound, read-out: HCA—3 in vitro IC50.
Where [3] appears, read: Table 2, three days incubation, read-out: L1210 in vitro IC50.
Setting [4] is: Table 1, 60 to 65 hours with compound, 50% inhibition of growth, read-out: HCA—3 in vitro ID50.
Where [5] appears, read: Table 1, three days incubation, 50% inhibition of growth, read-out: L1210 in vitro ID50.

In the case of `CCN(CC)CCn1nc2c3c(c(NCCNCCO)ccc31)Sc1ccc(OC)cc1-2` [2-[[2-[[2-(2-(Diethylamino)ethyl]-9-methoxy-2H[1]benzothiopyrano[4,3,2-cd]indazol-5-yl]amino]ethyl]amino]ethanol], the IC50 in the assay on HCT-8 cells (setting [2]) turned out to be 230 nM; in the assay on L1210 cells (setting [3]) it was 200 nM. In addition, in assay [1], the response vs control in vivo at 25 mg/kg was 177%.

For the compound `CN(C)CCCn1nc2c3c(c(NCCN)ccc31)Sc1ccccc1-2` [(CH2)3N(CH3)2 / NHCH2CH2NH2, N-[2-[3-(dimethylamino)propyl]-2H[1]benzothiopyrano[4,3,2-cd]indazol-5-yl]-1,2-ethanediamine], the IC50 in the assay with HCT-8 cells (setting [4]) is 130 nM; in the assay with L1210 cells (setting [5]) it was 29 nM. Moreover, the response vs control in vivo at 6.25 mg/kg in assay [1] was determined as 185%. Besides, the response vs control in vivo at 12.5 mg/kg in assay [1] was 298%.

Regarding `CN(C)CCCn1nc2c3c(c([N+](=O)[O-])ccc31)Sc1ccccc1-2` [CH2CH2CH2N(CH3)2 / NO2, N,N dimethyl-5-nitro-2H[1]benzothiopyrano[4,3,2-cd]indazole-2-propanamine], the IC50 in the assay with HCT-8 cells (setting [4]) was determined as 210 nM. The IC50 in the assay on L1210 cells (setting [5]) was 190 nM. For the same compound, in assay [1], the response vs control in vivo at 25 mg/kg was 121% and the response vs control in vivo at 100 mg/kg is 141%.

For `CCN(CC)CCn1nc2c3c(c(N)ccc31)Sc1ccc(O)cc1-2` [CH2CH2N(C2H5)2 / NH2 / 9-OH, 5-Amino-2-[2-(diethylamino)ethyl]-2H[1]benzothiopyrano[4,3,2-cd]indazol-9-ol], the IC50 was 28 nM in the assay with HCT-8 cells (setting [2]) and 12 nM in the assay with L1210 cells (setting [3]). In addition, the response vs control in vivo at 6.25 mg/kg in assay [1] is 238%.

For `CCN(CC)CCn1nc2c3c(c(NCCCN)ccc31)Sc1ccccc1-2` [CH2CH2N(C2H5)2 / NHCH2CH2CH2NH2], in the assay with HCT-8 cells (setting [4]), the IC50 was found to be 880 nM. Moreover, in the assay with L1210 cells (setting [5]), the IC50 stood at 290 nM. For the same compound, in assay [1], the response vs control in vivo at 3.12 mg/kg came out at 132%, the response vs control in vivo at 6.25 mg/kg worked out at 142%, the response vs control in vivo at 12.5 mg/kg was 154% and the response vs control in vivo at 25 mg/kg amounted to 169%.

For the compound `CCN(CC)CCn1nc2c3c(c(NCCN)ccc31)Sc1ccc(OC)cc1-2` [CH2CH2N(C2H5)2 / NHCH2CH2NH2 / 9-OCH3], the results for the IC50 in the assay with HCT-8 cells (setting [2]) and in the assay with L1210 cells (setting [3]) were 290 nM and 210 nM, respectively. In addition, the response vs control in vivo at 12.5 mg/kg in assay [1] was 177%.

For the compound `CCN(CC)CCn1nc2c3c(c(NC(=O)CCl)ccc31)Sc1ccccc1-2` [CH2CH2N(C2H5)2 / NHCOCH2Cl, 2-Chloro-N-[2-[2-(diethylamino)ethyl]-2H[1]benzothiopyrano[4,3,2-cd]indazol-5-yl]acetamide], the IC50 in the assay on HCT-8 cells (setting [4]) was determined as 380 nM. Moreover, in the assay on L1210 cells (setting [5]), the IC50 came to 190 nM. In assay [1], the response vs control in vivo at 25 mg/kg amounted to 124% and the response vs control in vivo at 50 mg/kg was determined as 165%.

For `CCN(CC)CCn1nc2c3c(c([N+](=O)[O-])ccc31)Sc1c(OC)ccc(OC)c1-2` [CH2CH2N(C2H5)2 / NO2 / 7,10-(OCH3)2, N,N-Diethyl-7,10-dimethoxy-5-nitro-2H[1]benzothiopyrano[4,3,2-cd]indazol-2-ethanamine], the values for the IC50 with HCT-8 cells (setting [2]) and in the assay on L1210 cells (setting [3]) were 500 nM and 1300 nM, respectively.

Consider `CCN(CC)CCn1nc2c3c(c([N+](=O)[O-])ccc31)Sc1c(O)ccc(O)c1-2` [CH2CH2N(C2H5)2 / NO2 / 7,10-(OH)2], for which the IC50 with L1210 cells (setting [3]) came out at 1700 nM.

On to `CCN(CC)CCn1nc2c3c(c([N+](=O)[O-])ccc31)Sc1c(OC)ccc(O)c1-2` [CH2CH2N(C2H5)2 / NO2 / 7-OCH3, 10-OH, 2-[2-(diethylamino)-ethyl]-7-methoxy-5-nitro-2H[1]benzothiopyrano[4,3,2-cd]indazol-10-ol], for which the IC50 in the assay on HCT-8 cells (setting [2]) is 420 nM; with L1210 cells (setting [3]), 1000 nM.

For `CCN(CC)CCn1nc2c3c(c(NCCN4CCOC4=O)ccc31)Sc1ccc(OC)cc1-2` [CH2CH2N(C2H5)2 / [drawing] / 9-OCH3, 3-[2-[[2-[2-(Diethylamino)ethyl]-9-methoxy-2H[1]benzothiopyrano[4,3,2-cd]indazol-5-yl]amino]ethyl]-2-oxazolidinone], the IC50 with HCT-8 cells (setting [2]) worked out at 1000 nM. The response vs control in vivo at 100 mg/kg in assay [1] came out at 220%.

With `CCN(CC)CCn1nc2c3c(c(NCCN4CCOC4=O)ccc31)Sc1ccc(O)cc1-2` [CH2CH2N(C2H5)2 / [drawing] / 9-OH, 3-[2-[[2-[2-(diethylamino)ethyl]-9-hydroxy-2H[1]benzothiopyrano[4,3,2-cd]indazol-5-yl]amino]ethyl]-2-oxazolidinone], the IC50 in the assay on HCT-8 cells (setting [2]) amounted to 24 nM; in the assay with L1210 cells (setting [3]) it was 5.5 nM. For the same compound, the response vs control in vivo at 12.5 mg/kg in assay [1] stood at 175%.

In the case of `NCCn1nc2c3c(c([N+](=O)[O-])ccc31)Sc1ccccc1-2` [CH2CH2NH2 / NO2 / >300], in assay [1], the response vs control in vivo at 12.5 mg/kg came to 136% and the response vs control in vivo at 25 mg/kg was determined as 187%.

Take `CCNCCn1nc2c3c(c([N+](=O)[O-])ccc31)Sc1ccccc1-2` [CH2CH2NHC2H5 / NO2 / C17H16N4O2S·HCl]: the IC50 with HCT-8 cells (setting [4]) was determined as 140 nM; in the assay with L1210 cells (setting [5]), 24 nM. The response vs control in vivo at 12.5 mg/kg in assay [1] turned out to be 187%.

With `CCNCCn1nc2c3c(c(N)ccc31)Sc1ccccc1-2` [CH2CH2NHC2H5 / NO2 / C17H18N4S·2HCl], the values for the IC50 with HCT-8 cells (setting [4]) and with L1210 cells (setting [5]) were 300 nM and 71 nM, respectively. The response vs control in vivo at 12.5 mg/kg in assay [1] came out at 188%.

Regarding `CCN(CC)CCn1nc2c3c(c(N)ccc31)Sc1ccc(OC)cc1-2` [CH2CH2NHCH2CH2OH / NH2 / 9-OCH3, 5-Amino-N,N-diethyl-9-methoxy-2H[1]benzothiopyrano[4,3,2-cd]indazole-2-ethanamine], the IC50 in the assay with L1210 cells (setting [3]) worked out at 1600 nM. Further, the response vs control in vivo at 50 mg/kg in assay [1] was determined as 154%.

For the compound `CCN(CC)CCNc1ccc2c3c(nn2CCNCCO)-c2ccccc2Sc13` [CH2CH2NHCH2CH2OH / NHCH2CH2N(C2H5)2, 2-[[2-[5-[[2-(Diethylamino)ethyl]amino]-2H[1]benzothiopyrano[4,3,2-cd]indazol-2-yl]ethyl]amino]ethanol], the IC50 with HCT-8 cells (setting [4]) was found to be 450 nM. Besides, the IC50 with L1210 cells (setting [5]) amounted to 240 nM. Besides, in assay [1], the response vs control in vivo at 3.12 mg/kg worked out at 134%, the response vs control in vivo at 6.25 mg/kg was 137%, the response vs control in vivo at 12.5 mg/kg was 135% and the response vs control in vivo at 25 mg/kg was 147%.

Turning to `CCN(CC)CCn1nc2c3c(c([N+](=O)[O-])ccc31)Sc1ccc(OC)cc1-2` [CH2CH2NHCH2CH2OH / NO2 / C20H22N4O3S, N,N-Diethyl-9-methoxy-5-nitro-2H[1]benzothiopyrano[4,3,2-cd]indazole-2-ethanamine], the IC50 in the assay on L1210 cells (setting [3]) was 640 nM. Further, in assay [1], the response vs control in vivo at 12.5 mg/kg stood at 142% and the response vs control in vivo at 25 mg/kg is 209%.
